Measurements from US8946268B2, “Modulators of HEC1 activity and methods therefor” (Taivex Therapeutics, Inc., priority 2010, dated 2015).
Several values for one entry are separate records, joined by “and”; a condition that tells them apart may be missing. Equal values may be shown once. Read-outs that look alike come from different tables or passages of the source. One block for each molecule: values may come before it.

What was measured:
[1] = Pharmacokinetics in rats after oral administration; type: in vivo, SD rat; settings: for MRT inf: read-out: MRT0-inf
Method: (§1) Bioavailability: Selected compounds were administered to rats per os or via injection following well known procedures.

[2] = Pharmacokinetics in rats after i.v. injection; type: in vivo, SD rat
Method: as §1

MDA-MB-468 = experiment: Antiproliferative activity (MTS assay), MDA-MB-468; type: cell-based; settings: Homo sapiens, MDA-MB-468, 96 h, MDA-MB-468 cells
Method: (§2) Antiproliferative effect is expressed as IC50 values in microMolar final concentration.
(§3) Cells were grown at 37° C. in a humidified atmosphere with 5% CO2 and 95% air. Cells were seeded in 96 well tissue culture plates.
(§4) Compound treatment started after overnight incubation of cells (TO). […] Compound was added to the plate in triplicate wells, and the plates were then incubated for 96 hours. DMSO (compounds diluents) was also included and added to the plate in control wells. Cell viability was then determined by MTS assay using CellTiter 96® AQueous non-radioactive cell proliferation assay system (Promega). A plate reader (Molecular Devices, Vmax) was used to read the optical densities, and the results were used to deduce concentration-response curves. […] The results were analyzed using linear regression software (GraphPad Prism 5; GraphPad Software Inc.).
(§5) The GI50 values (growth inhibitory activity) were determined to emphasize on the correction for the cell count at time zero; thus, the % inhibition of test drug were: [1−(T−T0)/(C−T0)]×100; and these value were used to plot the concentration-response curves, and then analyzed with linear regression software (GraphPad Prism 5).

Hela = experiment: Antiproliferative activity (MTS assay), Hela; type: cell-based; settings: Homo sapiens, HeLa, 96 h, Hela cells
Method: as §2, §3, §4, §5

MDA-MB-231 = experiment: Antiproliferative activity (MTS assay), MDA-MB-231; type: cell-based; settings: Homo sapiens, MDA-MB-231, 96 h, MDA-MB-231 cells
Method: as §2, §3, §4, §5

K562 = experiment: Antiproliferative activity (MTS assay), K562; type: cell-based; settings: Homo sapiens, K562, 96 h, K562 cells
Method: as §2, §3, §4, §5

[3] = Combination of Hec1 inhibitors with chemotherapeutic inhibitors; settings: preliminary data
[4] = compound 42 oral, SD rat, individual rats No. 1-3
[5] = compound 42 i.v., SD rat, individual rats No. 1-3
[6] = Sprague-Dawley, rat, serum, po, 20 mg/kg, oral 20 mg/kg, 1% methyl-cellulose, SD rat, Mean
[7] = Sprague-Dawley, rat, serum, po, 20 mg/kg, oral 20 mg/kg, SD rat, individual rats No. 1-3
[8] = oral 20 mg/kg, SD rat, individual rats No. 1-3, 20 mg/kg
[9] = i.v. 2 mg/kg, SD rat, individual rats No. 1-3, 2 mg/kg
[10] = compound 95 oral, SD rat, individual rats No. 1-3
[11] = compound 95 i.v., SD rat, individual rats No. 1-3

IC50 (MDA-MB-468): 40 nM
IC50 (Hela): 50 nM
MRT ([1]; SD, rat, serum, po, 20 mg/kg, compound 95 oral, SD rat, individual rats No. 1-3, read-out: MRT): 4.4 h
half-life ([1]; SD, rat, serum, po, compound 95 oral, formulation and route otherwise identical to compound 82, SD rat, Mean): 10.9 h
MRT ([1]; SD, rat, serum, po, compound 95 oral, formulation and route otherwise identical to compound 82, SD rat, Mean, read-out: MRT): 4.24 h
Tmax ([1]; SD, rat, serum, po, compound 95 oral, formulation and route otherwise identical to compound 82, SD rat, Mean, read-out: Tmax): 3 h
half-life ([1]; Sprague-Dawley, rat, serum, po, 20 mg/kg, compound 95 oral, SD rat, individual rats No. 1-3): 9.96 h
MRT [1, 10]: 4.38 h and 3.92 h
T1/2 [1, 10]: 12.86 h and 9.75 h
Tmax [1, 10]: 4.00 h and 1.00 h
MRT ([2]; Sprague-Dawley, rat, serum, iv, 2 mg/kg, compound 95 i.v., SD rat, individual rats No. 1-3, read-out: MRT): 131 h
half-life ([2]; Sprague-Dawley, rat, serum, iv, 2 mg/kg, compound 95 i.v., formulation and route otherwise identical to compound 82, SD rat, Mean): 7.36 h
C0 ([2]; Sprague-Dawley, rat, serum, iv, 2 mg/kg, compound 95 i.v., formulation and route otherwise identical to compound 82, SD rat, Mean, read-out: C0): 3670 ng/mL
MRT ([2]; Sprague-Dawley, rat, serum, iv, 2 mg/kg, compound 95 i.v., formulation and route otherwise identical to compound 82, SD rat, Mean, read-out: MRT): 143 h
C0 [2, 11]: 2519 ng/mL and 3144 ng/mL and 5356 ng/mL
MRT [2, 11]: 189 h and 108 h
IC50 (MDA-MB-231): 30 nM
IC50 (K562): 30 nM
SMILES: COc1ccc(Oc2cc(C)c(-c3csc(NC(=O)c4ccncc4)n3)c(C)c2)cc1 [Compound 95]

IC50 (MDA-MB-468): 530 nM
IC50 (Hela): 330 nM
IC50 (MDA-MB-231): 220 nM
IC50 (K562): 120 nM
SMILES: COc1ccc(Oc2cc(C)c(-c3csc(NC(=O)c4ccnc([N+](=O)[O-])c4)n3)c(C)c2)cc1 [Compound 124]

IC50 (MDA-MB-468): 250 nM
IC50 (Hela): 270 nM
IC50 (MDA-MB-231): 160 nM
IC50 (K562): 180 nM
SMILES: CSc1cc(C)c(-c2csc(NC(=O)c3ccncc3)n2)c(C)c1 [Compound 125]

IC50 (MDA-MB-468): 50 nM
IC50 (Hela): 40 nM
IC50 (MDA-MB-231): 30 nM
IC50 (K562): 20 nM
SMILES: COc1ccc(Sc2cc(C)c(-c3csc(NC(=O)c4ccnc(F)c4)n3)c(C)c2)cc1 [Compound 126]

IC50 (MDA-MB-468): 160 nM
IC50 (Hela): 240 nM
IC50 (MDA-MB-231): 160 nM
IC50 (K562): 190 nM
SMILES: COc1ccc(Oc2cc(C)c(-c3csc(NC(=O)c4ccnc(N)c4)n3)c(C)c2)cc1 [Compound 128]

IC50 (MDA-MB-468): 270 nM
IC50 (Hela): 270 nM
IC50 (MDA-MB-231): 200 nM
IC50 (K562): 190 nM
SMILES: COc1ccc(S(=O)(=O)c2cc(C)c(-c3csc(NC(=O)c4ccncc4)n3)c(C)c2)cc1 [Compound 129]

IC50 (MDA-MB-468): 140 nM
IC50 (Hela): 180 nM
IC50 (MDA-MB-231): 90 nM
IC50 (K562): 80 nM
SMILES: COc1ccc([S+]([O-])c2cc(C)c(-c3csc(NC(=O)c4ccncc4)n3)c(C)c2)cc1 (centres unmarked) [Compound 130]

Continued, molecule first:

SMILES: COc1cc(C)c(-c2csc(NC(=O)c3ccncc3)n2)c(C)c1 [Compound 42]
half-life ([1]; Sprague-Dawley, rat, serum, po, 20 mg/kg, compound 42 oral, SD rat, individual rats No. 1-3): 3.28 h
MRT ([1]; Sprague-Dawley, rat, serum, po, 20 mg/kg, compound 42 oral, SD rat, individual rats No. 1-3, read-out: MRT): 3.46 h
Tmax ([1]; Sprague-Dawley, rat, serum, po, 20 mg/kg, compound 42 oral, SD rat, individual rats No. 1-3, read-out: Tmax): 1.5 h
half-life ([1]; Sprague-Dawley, rat, serum, po, 20 mg/kg, compound 42 oral, formulation and route otherwise identical to compound 82, SD rat, Mean): 3.18 h
MRT ([1]; Sprague-Dawley, rat, serum, po, 20 mg/kg, compound 42 oral, formulation and route otherwise identical to compound 82, SD rat, Mean, read-out: MRT): 3.36 h
Tmax ([1]; Sprague-Dawley, rat, serum, po, 20 mg/kg, compound 42 oral, formulation and route otherwise identical to compound 82, SD rat, Mean, read-out: Tmax): 1.33 h
MRT [1, 4]: 3.78 h and 2.83 h
T1/2 [1, 4]: 3.30 h and 2.97 h
Tmax [1, 4]: 1 h
C0 ([2]; Sprague-Dawley, rat, serum, iv, 2 mg/kg, compound 42 i.v., SD rat, individual rats No. 1-3, read-out: C0): 11500 ng/mL
MRT ([2]; Sprague-Dawley, rat, serum, iv, 2 mg/kg, compound 42 i.v., SD rat, individual rats No. 1-3, read-out: MRT): 1.3 h
half-life ([2]; Sprague-Dawley, rat, serum, iv, 2 mg/kg, compound 42 i.v., formulation and route otherwise identical to compound 82, SD rat, Mean): 1.52 h
C0 ([2]; Sprague-Dawley, rat, serum, iv, 2 mg/kg, compound 42 i.v., formulation and route otherwise identical to compound 82, SD rat, Mean, read-out: C0): 11500 ng/mL
MRT ([2]; Sprague-Dawley, rat, serum, iv, 2 mg/kg, compound 42 i.v., formulation and route otherwise identical to compound 82, SD rat, Mean, read-out: MRT): 1.26 h
C0 [2, 5]: 11344 ng/mL and 11625 ng/mL
MRT [2, 5]: 1.20 h and 1.28 h
T1/2 [2, 5]: 1.40 h and 0.99 h and 2.16 h

SMILES: Cc1cc(OC(C)C)cc(C)c1-c1csc(NC(=O)c2ccncc2)n1 [Compound 82]
half-life [1, 6]: 4.41 h
MRT inf [1, 6]: 7.73 h
Tmax ([1]; Sprague-Dawley, rat, serum, po, 20 mg/kg, oral 20 mg/kg, 1% methyl-cellulose, SD rat, Mean, read-out: Tmax): 4 h
half-life [1, 7]: 4.53 h
MRT inf [1, 7]: 7.71 h
Tmax ([1]; Sprague-Dawley, rat, serum, po, 20 mg/kg, oral 20 mg/kg, SD rat, individual rats No. 1-3, read-out: Tmax): 4 h
MRT0-inf [1, 8]: 5.76 h and 9.72 h
T1/2 [1, 8]: 2.94 h and 5.76 h
half-life ([2]; Sprague-Dawley, rat, serum, iv, 2 mg/kg, i.v. 2 mg/kg, 5% DMSO, 10% Cremophor, 85% WFI, SD rat, Mean): 5.14 h
C0 ([2]; Sprague-Dawley, rat, serum, iv, 2 mg/kg, i.v. 2 mg/kg, 5% DMSO, 10% Cremophor, 85% WFI, SD rat, Mean, read-out: C0): 7020 ng/mL
MRT inf ([2]; Sprague-Dawley, rat, serum, iv, 2 mg/kg, i.v. 2 mg/kg, 5% DMSO, 10% Cremophor, 85% WFI, SD rat, Mean, read-out: MRT0-inf): 6.46 h
C0 ([2]; Sprague-Dawley, rat, serum, iv, 2 mg/kg, i.v. 2 mg/kg, SD rat, individual rats No. 1-3, read-out: C0): 8180 ng/mL
C0 [2, 9]: 5590 ng/mL and 7282 ng/mL
MRT0-inf [2, 9]: 8.80 h and 3.36 h and 7.22 h
T1/2 [2, 9]: 6.85 h and 2.79 h and 5.78 h

SMILES: Cc1cc(S(C)(=O)=O)cc(C)c1-c1csc(NC(=O)c2ccncc2)n1 [Compound 127]
IC50 (MDA-MB-468): 460 nM
IC50 (Hela): 840 nM
IC50 (MDA-MB-231): 450 nM
IC50 (K562): 530 nM

SMILES: COc1ccc(Oc2cc(C)c(-c3csc(NC(=O)c4ccncc4)n3)c(Cl)c2)cc1 [Compound 131]
IC50 (MDA-MB-468): 50 nM
IC50 (Hela): 60 nM
IC50 (MDA-MB-231): 40 nM
IC50 (K562): 40 nM

SMILES: CC(=O)O[C@H]1C(=O)[C@@]2(C)[C@H]([C@H](OC(=O)c3ccccc3)[C@]3(O)C[C@H](OC(=O)[C@H](O)[C@@H](NC(=O)c4ccccc4)c4ccccc4)C(C)=C1C3(C)C)[C@]1(OC(C)=O)CO[C@@H]1C[C@@H]2O [Taxol]
effect in combination of Hec1 inhibitors with chemotherapeutic inhibitors [3]: synergistic effect

SMILES: COc1cccc2c1C(=O)c1c(O)c3c(c(O)c1C2=O)C[C@@](O)(C(=O)CO)C[C@@H]3O[C@H]1C[C@H](N)[C@H](O)[C@H](C)O1 [doxorubicin]
effect in combination of Hec1 inhibitors with chemotherapeutic inhibitors [3]: at most additive effect

SMILES: CC[C@]1(O)C[C@@H]2CN(CCc3c([nH]c4ccccc34)[C@@](C(=O)OC)(c3cc4c(cc3OC)N(C)[C@H]3[C@@](O)(C(=O)OC)[C@H](OC(C)=O)[C@]5(CC)C=CCN6CC[C@]43[C@@H]65)C2)C1 [vinblastine]
effect in combination of Hec1 inhibitors with chemotherapeutic inhibitors [3]: synergistic effect

SMILES: CC[C@]1(O)C[C@H]2CN(CCc3c([nH]c4ccccc34)[C@@](C(=O)OC)(c3cc4c(cc3OC)N(C=O)[C@H]3[C@@](O)(C(=O)OC)[C@H](OC(C)=O)[C@]5(CC)C=CCN6CC[C@]43[C@@H]65)C2)C1 [vincristine]
effect in combination of Hec1 inhibitors with chemotherapeutic inhibitors [3]: synergistic effect
